Test results as given in patent US7138361B2, “Herbicidal heterocycles” (E. I. du Pont de Nemours and Company, priority 2000, dated 2006).

What was measured:
Type in all cases: in vivo
[1] = tested on: barnyardgrass (Echinochloa crus-galli); experiment: Test B postemergence; conditions: 13 to 15 days
How it was run: (§1)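 Preemergence: seeds planted and treated with test chemicals in non-phytotoxic solvent with surfactant; postemergence on plants 2–18 cm (1- to 4-leaf stage). Kept in greenhouse 13–15 days, then visually rated against controls on a 0 (no effect) to 100 (complete control) scale.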

[2] = tested on: giant foxtail (Setaria faberii); experiment: Test B postemergence; conditions: 13 to 15 days
How it was run: as §1

[3] = tested on: blackgrass (Alopecurus myosuroides); experiment: Test B postemergence; conditions: 13 to 15 days
How it was run: as §1

[4] = tested on: cocklebur (Xanthium strumarium); experiment: Test B postemergence; conditions: 13 to 15 days
How it was run: as §1

[5] = tested on: morning glory (Ipomoea hederacea); experiment: Test B postemergence; conditions: 13 to 15 days
How it was run: as §1

[6] = tested on: velvetleaf (Abutilon theophrasti); experiment: Test B postemergence; conditions: 13 to 15 days
How it was run: as §1

[7] = tested on: Surinam grass (Brachiaria decumbens); experiment: Test B postemergence; conditions: 13 to 15 days
How it was run: as §1

[8] = tested on: pigweed (Amaranthus retroflexus); experiment: Test B postemergence; conditions: 13 to 15 days
How it was run: as §1

[9] = tested on: crabgrass (Digitaria sanguinalis); experiment: Test B postemergence; conditions: 13 to 15 days
How it was run: as §1

[10] = tested on: wheat (Triticum aestivum); experiment: Test B postemergence; conditions: 13 to 15 days
How it was run: as §1

[11] = tested on: wild oat (Avena fatua); experiment: Test B postemergence; conditions: 13 to 15 days
How it was run: as §1

[12] = tested on: lambsquarters (Chenopodium album); experiment: Test B postemergence; conditions: 13 to 15 days
How it was run: as §1

[13] = tested on: corn (Zea mays); experiment: Test B postemergence; conditions: 13 to 15 days
How it was run: as §1

[14] = tested on: barnyardgrass (Echinochloa crus-galli); experiment: Test B flooded paddy test; conditions: Rate 1000 g/ha, scale of 0 to 100 where 0 is no effect and 100 is complete control, visually evaluated after 13 to 15 days
How it was run: (§2)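 Rice, smallflower flatsedge, duck salad and barnyardgrass grown to 2-leaf stage in flooded paddy and treated with test chemicals. Plants kept in greenhouse 13 to 15 days, then visually rated against controls. Scale 0 (no effect) to 100 (complete control).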

[15] = tested on: duck salad (Heteranthera limosa); experiment: Test B flooded paddy test; conditions: Rate 1000 g/ha, scale of 0 to 100 where 0 is no effect and 100 is complete control, visually evaluated after 13 to 15 days
How it was run: as §2

[16] = tested on: rice (Oryza saliva); experiment: Test B flooded paddy test; conditions: Rate 1000 g/ha, scale of 0 to 100 where 0 is no effect and 100 is complete control, visually evaluated after 13 to 15 days
How it was run: as §2

[17] = tested on: smallflower flatsedge (Cyperus difformis); experiment: Test B flooded paddy test; conditions: Rate 1000 g/ha, scale of 0 to 100 where 0 is no effect and 100 is complete control, visually evaluated after 13 to 15 days
How it was run: as §2

[18] = tested on: barnyardgrass (Echinochloa crus-galli); experiment: Test B preemergence
How it was run: as §1

[19] = tested on: giant foxtail (Setaria faberii); experiment: Test B preemergence
How it was run: as §1

[20] = tested on: cocklebur (Xanthium strumarium); experiment: Test B preemergence
How it was run: as §1

[21] = tested on: morning glory (Ipomoea hederacea); experiment: Test B preemergence
How it was run: as §1

[22] = tested on: velvetleaf (Abutilon theophrasti); experiment: Test B preemergence
How it was run: as §1

[23] = tested on: Surinam grass (Brachiaria decumbens); experiment: Test B preemergence
How it was run: as §1

[24] = tested on: pigweed (Amaranthus retroflexus); experiment: Test B preemergence
How it was run: as §1

[25] = tested on: crabgrass (Digitaria sanguinalis); experiment: Test B preemergence
How it was run: as §1

[26] = tested on: rice (Oryza saliva); experiment: Test B preemergence
How it was run: as §1

[27] = tested on: lambsquarters (Chenopodium album); experiment: Test B preemergence
How it was run: as §1

[28] = tested on: corn (Zea mays); experiment: Test B preemergence
How it was run: as §1

[29] = Rate 125 g/ha, scale 0 (no effect) to 100 (complete control)
[30] = Rate 500 g/ha, scale 0 to 100, 0 is no effect, 100 is complete control
[31] = Preemergence, Rate 500 g/ha, scale 0 to 100, 0 no effect, 100 complete control
[32] = preemergence, Rate 125 g/ha, scale of 0 to 100 where 0 is no effect and 100 is complete control, 13 to 15 days
[33] = preemergence, Rate 125 g/ha, scale 0 to 100, 0 no effect, 100 complete control

## Cc1ccc(N2CCC(n3ccc(C(C)(C)C)n3)C2=O)cc1C(F)(F)F (centres unmarked) [Compound 47]
[1]; [29]
  Plant response rating, Barnyardgrass: 0
[1]; [30]
  Plant response rating, Barnyardgrass: 0
[2]; [29]
  Plant response rating, Foxtail, Giant: 0
[2]; [30]
  Plant response rating, Foxtail, Giant: 0
[3]; [29]
  Plant response rating, Blackgrass: 0
[3]; [30]
  Plant response rating, Blackgrass: 0
[4]; [29]
  Plant response rating, Cocklebur: 0
[4]; [30]
  Plant response rating, Cocklebur: 0
[5]; [29]
  Plant response rating, Morningglory: 0
[5]; [30]
  Plant response rating, Morningglory: 0
[6]; [29]
  Plant response rating, Velvetleaf: 0
[6]; [30]
  Plant response rating, Velvetleaf: 0
[7]; [29]
  Plant response rating, Surinam grass: 0
[7]; [30]
  Plant response rating, Surinam grass: 0
[8]; [29]
  Plant response rating, Pigweed: 50
[8]; [30]
  Plant response rating, Pigweed: 50
[9]; [29]
  Plant response rating, Crabgrass: 0
[9]; [30]
  Plant response rating, Crabgrass: 0
[10]; [29]
  Plant response rating, Wheat: 0
[10]; [30]
  Plant response rating, Wheat: 0
[11]; [29]
  Plant response rating, Wild Oat: 0
[11]; [30]
  Plant response rating, Wild Oat: 0
[12]; [29]
  Plant response rating, Lambsquarters: 70
[12]; [30]
  Plant response rating, Lambsquarters: 90
[13]; [29]
  Plant response rating, Corn: 0
[13]; [30]
  Plant response rating, Corn: 0
[14]
  Plant response rating, Barnyardgrass: 70
[15]
  Plant response rating, Ducksalad: 20
[16]
  Plant response rating, Rice: 70
[17]
  Plant response rating, Flatsedge: 100
[18]; [31]
  Plant response rating, Barnyardgrass: 0
[18]; [32]
  Plant response rating, Barnyardgrass: 0
[19]; [31]
  Plant response rating, Foxtail, Giant: 0
[19]; [32]
  Plant response rating, Foxtail, Giant: 0
[20]; [31]
  Plant response rating, Cocklebur: 0
[20]; [32]
  Plant response rating, Cocklebur: 0
[21]; [31]
  Plant response rating, Morningglory: 0
[21]; [32]
  Plant response rating, Morningglory: 0
[22]; [31]
  Plant response rating, Velvetleaf: 0
[22]; [32]
  Plant response rating, Velvetleaf: 0
[23]; [31]
  Plant response rating, Surinam grass: 0
[23]; [32]
  Plant response rating, Surinam grass: 0
[24]; [31]
  Plant response rating, Pigweed: 100
[24]; [32]
  Plant response rating, Pigweed: 100
[25]; [31]
  Plant response rating, Crabgrass: 0
[25]; [32]
  Plant response rating, Crabgrass: 0
[26]; [31]
  Plant response rating, Rice: 20
[26]; [32]
  Plant response rating, Rice: 0
[27]; [31]
  Plant response rating, Lambsquarters: 100
[27]; [32]
  Plant response rating, Lambsquarters: 0
[28]; [31]
  Plant response rating, Corn: 0
[28]; [32]
  Plant response rating, Corn: 0

## CC(C)(C)c1ccn(C2C(=O)N(c3cccc(C(F)(F)F)c3)C[S+]2[O-])n1 (centres unmarked) [Compound 29]
[1]; [29]
  Plant response rating, Barnyardgrass: 0
[1]; [30]
  Plant response rating, Barnyardgrass: 0
[2]; [29]
  Plant response rating, Foxtail, Giant: 0
[2]; [30]
  Plant response rating, Foxtail, Giant: 0
[3]; [29]
  Plant response rating, Blackgrass: 0
[3]; [30]
  Plant response rating, Blackgrass: 0
[4]; [29]
  Plant response rating, Cocklebur: 0
[4]; [30]
  Plant response rating, Cocklebur: 0
[5]; [29]
  Plant response rating, Morningglory: 0
[5]; [30]
  Plant response rating, Morningglory: 0
[6]; [29]
  Plant response rating, Velvetleaf: 0
[6]; [30]
  Plant response rating, Velvetleaf: 20
[7]; [29]
  Plant response rating, Surinam grass: 0
[7]; [30]
  Plant response rating, Surinam grass: 0
[8]; [29]
  Plant response rating, Pigweed: 30
[8]; [30]
  Plant response rating, Pigweed: 30
[9]; [29]
  Plant response rating, Crabgrass: 0
[9]; [30]
  Plant response rating, Crabgrass: 50
[10]; [29]
  Plant response rating, Wheat: 0
[10]; [30]
  Plant response rating, Wheat: 0
[11]; [29]
  Plant response rating, Wild Oat: 0
[11]; [30]
  Plant response rating, Wild Oat: 0
[12]; [29]
  Plant response rating, Lambsquarters: 0
[12]; [30]
  Plant response rating, Lambsquarters: 20
[13]; [29]
  Plant response rating, Corn: 0
[13]; [30]
  Plant response rating, Corn: 0
[14]
  Plant response rating, Barnyardgrass: 0
[15]
  Plant response rating, Ducksalad: 0
[16]
  Plant response rating, Rice: 0
[17]
  Plant response rating, Flatsedge: 30
[18]; [31]
  Plant response rating, Barnyardgrass: 20
[18]; [33]
  Plant response rating, Barnyardgrass: 0
[19]; [31]
  Plant response rating, Foxtail, Giant: 0
[19]; [33]
  Plant response rating, Foxtail, Giant: 0
[20]; [31]
  Plant response rating, Cocklebur: 0
[20]; [33]
  Plant response rating, Cocklebur: 0
[21]; [31]
  Plant response rating, Morningglory: 30
[22]; [31]
  Plant response rating, Velvetleaf: 20
[23]; [31]
  Plant response rating, Surinam grass: 0
[23]; [33]
  Plant response rating, Surinam grass: 0
[24]; [31]
  Plant response rating, Pigweed: 70
[25]; [31]
  Plant response rating, Crabgrass: 0
[25]; [33]
  Plant response rating, Crabgrass: 0
[26]; [31]
  Plant response rating, Rice: 0
[27]; [31]
  Plant response rating, Lambsquarters: 100
[27]; [33]
  Plant response rating, Lambsquarters: 0
[28]; [31]
  Plant response rating, Corn: 0
[28]; [33]
  Plant response rating, Corn: 0

## CC(C)(C)c1ccn(C2CCN(c3cccc(OC(=O)C(F)(F)F)c3)C2=O)n1 (centres unmarked) [Compound 94]
[1]; [29]
  Plant response rating, Barnyardgrass: 0
[1]; [30]
  Plant response rating, Barnyardgrass: 0
[2]; [29]
  Plant response rating, Foxtail, Giant: 0
[2]; [30]
  Plant response rating, Foxtail, Giant: 0
[3]; [29]
  Plant response rating, Blackgrass: 0
[3]; [30]
  Plant response rating, Blackgrass: 0
[4]; [29]
  Plant response rating, Cocklebur: 0
[4]; [30]
  Plant response rating, Cocklebur: 0
[5]; [30]
  Plant response rating, Morningglory: 0
[6]; [30]
  Plant response rating, Velvetleaf: 0
[7]; [29]
  Plant response rating, Surinam grass: 0
[7]; [30]
  Plant response rating, Surinam grass: 0
[8]; [30]
  Plant response rating, Pigweed: 10
[9]; [29]
  Plant response rating, Crabgrass: 0
[9]; [30]
  Plant response rating, Crabgrass: 0
[10]; [30]
  Plant response rating, Wheat: 0
[11]; [30]
  Plant response rating, Wild Oat: 0
[12]; [30]
  Plant response rating, Lambsquarters: 20
[13]; [29]
  Plant response rating, Corn: 0
[13]; [30]
  Plant response rating, Corn: 0
[14]
  Plant response rating, Barnyardgrass: 0
[15]
  Plant response rating, Ducksalad: 0
[16]
  Plant response rating, Rice: 0
[17]
  Plant response rating, Flatsedge: 0
[18]; [31]
  Plant response rating, Barnyardgrass: 0
[18]; [32]
  Plant response rating, Barnyardgrass: 0
[19]; [31]
  Plant response rating, Foxtail, Giant: 0
[19]; [32]
  Plant response rating, Foxtail, Giant: 0
[20]; [31]
  Plant response rating, Cocklebur: 0
[20]; [32]
  Plant response rating, Cocklebur: 0
[21]; [31]
  Plant response rating, Morningglory: 0
[21]; [32]
  Plant response rating, Morningglory: 0
[22]; [31]
  Plant response rating, Velvetleaf: 70
[22]; [32]
  Plant response rating, Velvetleaf: 0
[23]; [31]
  Plant response rating, Surinam grass: 0
[23]; [32]
  Plant response rating, Surinam grass: 0
[24]; [31]
  Plant response rating, Pigweed: 0
[24]; [32]
  Plant response rating, Pigweed: 0
[25]; [31]
  Plant response rating, Crabgrass: 30
[25]; [32]
  Plant response rating, Crabgrass: 0
[26]; [31]
  Plant response rating, Rice: 20
[26]; [32]
  Plant response rating, Rice: 0
[27]; [31]
  Plant response rating, Lambsquarters: 100
[27]; [32]
  Plant response rating, Lambsquarters: 0
[28]; [31]
  Plant response rating, Corn: 0
[28]; [32]
  Plant response rating, Corn: 0
